Data taken from ChEMBL document CHEMBL1143413, “Synergistic effect of posaconazole and caspofungin against clinical zygomycetes” (Antimicrob Agents Chemother, 2007).
Values after ≈ are worked out from the molar mass of the structure shown.

Tests used:
Mucor [1] = assay: Antifungal activity against Mucor strain 43 zygomycota by conventional morphological method; assay type: functional
Absidia [2] = assay: Antifungal activity against Absidia strain 18 zygomycota by conventional morphological method; assay type: functional
Absidia [3] = assay: Antifungal activity against Absidia strain 11 zygomycota by conventional morphological method; assay type: functional
Rhizomucor = assay: Antifungal activity against Rhizomucor sp. strain 25 zygomycota by conventional morphological method; assay type: functional
Cunninghamella = assay: Antifungal activity against Cunninghamella sp. strain 12 zygomycota by conventional morphological method; assay type: functional
Rhizopus [4] = assay: Antifungal activity against Rhizopus strain 0 zygomycota by conventional morphological method; assay type: functional
Rhizopus [5] = assay: Antifungal activity against Rhizopus strain 8 zygomycota by conventional morphological method; assay type: functional
Mucor [6] = assay: Antifungal activity against Mucor strain 28 zygomycota by conventional morphological method; assay type: functional
Absidia [7] = assay: Antifungal activity against Absidia strain 17 zygomycota by conventional morphological method; assay type: functional
Mucor [8] = assay: Antifungal activity against Mucor strain 39 zygomycota by conventional morphological method; assay type: functional
Syncephalastrum = assay: Antifungal activity against Snycephalastrum sp. strain 23 zygomycota by conventional morphological method; assay type: functional
Rhizopus [9] = assay: Antifungal activity against Rhizopus strain 3 zygomycota by conventional morphological method; assay type: functional
[10] = Toxicity in invasive zygomycosis diseased patient assessed as mortality; assay type: organism-based; details: human, in vivo; read-out: Activity

CC[C@H](C)C[C@H](C)CCCCCCCCC(=O)N[C@H]1C[C@@H](O)[C@@H](NCCN)NC(=O)[C@@H]2[C@@H](O)CCN2C(=O)[C@H]([C@H](O)CCN)NC(=O)[C@H]([C@H](O)[C@@H](O)c2ccc(O)cc2)NC(=O)[C@@H]2C[C@@H](O)CN2C(=O)[C@H]([C@@H](C)O)NC1=O [CASPOFUNGIN]
MIC (Mucor [1]): 256 µg/mL (≈ 234 µM) | MIC (Absidia [2]): > 256 µg/mL | MIC (Absidia [3]): > 256 µg/mL | MIC (Rhizomucor): 128 µg/mL (≈ 117 µM) | MIC (Cunninghamella): > 256 µg/mL | MIC (Rhizopus [4]): > 256 µg/mL | MIC (Rhizopus [5]): > 256 µg/mL | MIC (Mucor [6]): 256 µg/mL (≈ 234 µM) | MIC (Absidia [7]): > 256 µg/mL | MIC (Mucor [8]): > 256 µg/mL | MIC (Syncephalastrum): > 256 µg/mL | MIC (Rhizopus [9]): > 256 µg/mL

CC[C@@H]([C@H](C)O)n1ncn(-c2ccc(N3CCN(c4ccc(OC[C@@H]5CO[C@@](Cn6cncn6)(c6ccc(F)cc6F)C5)cc4)CC3)cc2)c1=O [POSACONAZOLE]
MIC (Mucor [1]): 0.5 µg/mL (≈ 0.713 µM) | MIC (Absidia [2]): 0.5 µg/mL (≈ 0.713 µM) | MIC (Absidia [3]): 1 µg/mL (≈ 1.43 µM) | MIC (Rhizomucor): 2 µg/mL (≈ 2.85 µM) | MIC (Cunninghamella): 1 µg/mL (≈ 1.43 µM) | mortality [10]: 30% | MIC (Rhizopus [4]): 1 µg/mL (≈ 1.43 µM) | MIC (Rhizopus [5]): 1 µg/mL (≈ 1.43 µM) | MIC (Mucor [6]): 0.5 µg/mL (≈ 0.713 µM) | MIC (Absidia [7]): 1 µg/mL (≈ 1.43 µM) | MIC (Mucor [8]): 1 µg/mL (≈ 1.43 µM) | MIC (Syncephalastrum): 1 µg/mL (≈ 1.43 µM) | MIC (Rhizopus [9]): 1 µg/mL (≈ 1.43 µM)
